We go through 42 compounds from ChEMBL document CHEMBL1122265, “Nitrogen bridgehead compounds. 33. New antiallergic 4H-pyrido[1,2-a]pyrimidin-4-ones. 2” (1983).

The test system of experiment [1] is Rattus norvegicus. Kind of experiment: Antiallergic activity in rat reaginic passive cutaneous anaphylaxis (PCA) test upon intravenous administration; Insoluble. The format is functional, organism-based.
For experiment [2], the system named is Rattus norvegicus. Kind of experiment: Antiallergic activity in rat reaginic passive cutaneous anaphylaxis (PCA) test upon peroral administration. The format is functional. The note with it: po, read-out: ID50 (the source's name).
Experiment [3] has as its system Rattus norvegicus. In words: Antiallergic activity in rat reaginic passive cutaneous anaphylaxis (PCA) test upon intravenous administration. Particulars: read-out: ID50 (the source's name). In kind it is functional.
Experiment [4] concerns Rattus norvegicus. Kind of experiment: Antiallergic activity in rat reaginic passive cutaneous anaphylaxis (PCA) test upon peroral administration; NA means inactive. In kind it is functional, organism-based.

Calls of active or inactive are those of the source. The calls are words filed in the database; no cut-off is given here. A value given as a limit tells only on which side of the number the result lay.

With `Cc1cccc(C)c1NN=C1CCC(C)n2c1ncc(C(=O)O)c2=O` (centres undefined), the ID50 result with Rattus norvegicus [1] is “Insoluble”. Moreover, the ED50 in the experiment with Rattus norvegicus [2] amounted to 320 µmol/kg.
In the case of `CC1CCC(=NNc2cccnc2)c2ncc(C(=O)O)c(=O)n21` (centres undefined), the ED50 was 0.54 µmol/kg with Rattus norvegicus [3] and over 320 µmol/kg in the experiment with Rattus norvegicus [2].
As to `Cc1cc(C)c(NN=C2CCC(C)n3c2ncc(C(=O)O)c3=O)c(C)c1` (centres undefined), the ID50 result with Rattus norvegicus [1] is given as “Insoluble”. Moreover, the ED50 with Rattus norvegicus [2] turned out to be 320 µmol/kg.
Take `CC1CCC(=NNc2ccc(Cl)c(Cl)c2)c2ncc(C(=O)O)c(=O)n21` (centres undefined): the ED50 in the experiment with Rattus norvegicus [3] is 0.89 µmol/kg; in the experiment with Rattus norvegicus [2], over 100 µmol/kg.
In the same order, the values of `CC1CCC(=NNc2ccccc2)c2ncc(C(=O)NO)c(=O)n21` (centres undefined) are over 100 µmol/kg and over 100 µmol/kg.
As for `CC1CCC(=NNc2ccc3c(c2)OCO3)c2ncc(C(=O)O)c(=O)n21` (centres undefined), the values for the ED50 in the experiment on Rattus norvegicus [3] and with Rattus norvegicus [2] were 0.33 µmol/kg and over 100 µmol/kg, respectively.
As for `CC1CCC(=NNc2cc(C(F)(F)F)cc(C(F)(F)F)c2)c2ncc(C(=O)O)c(=O)n21` (centres undefined), the ID50 result in the experiment on Rattus norvegicus [1] was “Insoluble”. The ED50 in the experiment on Rattus norvegicus [2] is over 100 µmol/kg.
In the same order, the values of `Cc1cccc(Cl)c1NN=C1CCC(C)n2c1ncc(C(=O)O)c2=O` (centres undefined) are “Insoluble” and over 100 µmol/kg.
On to `CC1CCC(N=Nc2ccccc2C(=O)O)=C2N(C)C=C(C(=O)O)C(=O)N21` (centres undefined), for which the ED50 with Rattus norvegicus [3] and in the experiment with Rattus norvegicus [2] was over 100 µmol/kg in each case.
Turning to `CC1CC/C(=N\N)c2ncc(C(=O)O)c(=O)n21` (centres undefined), the ED50 in the experiment on Rattus norvegicus [3] is 42 µmol/kg; with Rattus norvegicus [2], over 100 µmol/kg.
Take `CC1CCC(=NNc2ccccc2C(=O)O)c2ncc(C(=O)NO)c(=O)n21` (centres undefined): the ED50 in the experiment on Rattus norvegicus [3] and with Rattus norvegicus [2] was over 100 µmol/kg in each case.
`COc1cc(NN=C2CCC(C)n3c2ncc(C(=O)O)c3=O)cc(OC)c1` (centres undefined): the ED50 turned out to be 0.42 µmol/kg with Rattus norvegicus [3] and 100 µmol/kg with Rattus norvegicus [2].
As for `COc1cc(OC)c(NN=C2CCC(C)n3c2ncc(C(=O)O)c3=O)cc1Cl` (centres undefined), in the experiment on Rattus norvegicus [1], the ID50 entry is “Insoluble”. Besides, the ED50 in the experiment with Rattus norvegicus [2] was over 100 µmol/kg.
For the compound `CC1CCC(=NN(C)c2ccccc2)c2ncc(C(=O)O)c(=O)n21` (centres undefined), the results for the ED50 in the experiment on Rattus norvegicus [3] and in the experiment on Rattus norvegicus [2] were 52.4 µmol/kg and over 100 µmol/kg, respectively.
On the same counts, the results for `CC1CCC(=NNc2ccccn2)c2ncc(C(=O)O)c(=O)n21` (centres undefined) are 3.2 µmol/kg and over 100 µmol/kg.
With `CC1CCC(=NNc2cccc3ccccc23)c2ncc(C(=O)O)c(=O)n21` (centres undefined), in the experiment on Rattus norvegicus [1], the ID50 result is “Insoluble”. The ED50 in the experiment with Rattus norvegicus [2] is over 320 µmol/kg.
On the same counts, the results for `CC1CCC(=NNc2c(Cl)cccc2Cl)c2ncc(C(=O)O)c(=O)n21` (centres undefined) are “Insoluble” and over 100 µmol/kg.
For `Cc1ccc(NN=C2CCC(C)n3c2ncc(C(=O)O)c3=O)cc1C` (centres undefined), the ED50 in the experiment on Rattus norvegicus [3] was 6.5 µmol/kg; in the experiment on Rattus norvegicus [2], over 100 µmol/kg.
In the same order, the values of `CNN=C1CCC(C)n2c1ncc(C(=O)O)c2=O` (centres undefined) are 17.5 µmol/kg and over 100 µmol/kg.
Take `CC1CCC(=NNc2cc([N+](=O)[O-])cc([N+](=O)[O-])c2)c2ncc(C(=O)O)c(=O)n21` (centres undefined): the ED50 was 3.4 µmol/kg with Rattus norvegicus [3] and over 100 µmol/kg with Rattus norvegicus [2].
Consider `CC1CCC(=NNc2ccc3ccccc3c2)c2ncc(C(=O)O)c(=O)n21` (centres undefined), for which the figures for the ED50 with Rattus norvegicus [3] and in the experiment with Rattus norvegicus [2] were 0.77 µmol/kg and over 100 µmol/kg, respectively.
In the same order, the values of `CC1CCC(=NNc2ccccc2)c2ncc(C(=O)O)c(=O)n21` (centres undefined) are 0.6 µmol/kg and 1.2 µmol/kg.
On to `Cc1cc(C)c(NN=C2CCC(C)n3c2ncc(C(=O)O)c3=O)cc1C` (centres undefined), for which the ID50 result in the experiment on Rattus norvegicus [1] was “Insoluble”. Further, the ED50 in the experiment with Rattus norvegicus [2] stood at 320 µmol/kg.
As to `CCOC(=O)c1cnc2n(c1=O)C(C)CCC2=NNc1c(C)n(C)n(-c2ccccc2)c1=O` (centres undefined), the ED50 with Rattus norvegicus [3] is 95 µmol/kg; with Rattus norvegicus [2] it was over 100 µmol/kg.
Consider `O=C(O)c1cc(=O)c2c(OCC(O)COc3cccc4oc(C(=O)O)cc(=O)c34)cccc2o1` [CROMOLYN SODIUM], for which the ED50 with Rattus norvegicus [3] worked out at 1 µmol/kg. The ID50 entry in the experiment with Rattus norvegicus [4] was “inactive”.
Consider `CC1CCC(C)(N=Nc2ccccc2C(=O)O)c2ncc(C(=O)O)c(=O)n21` (centres undefined), for which the ED50 with Rattus norvegicus [3] and in the experiment on Rattus norvegicus [2] was over 100 µmol/kg throughout.
As to `Cc1c(NN=C2CCC(C)n3c2ncc(C(=O)O)c3=O)c(=O)n(-c2ccccc2)n1C` (centres undefined), the ED50 in the experiment with Rattus norvegicus [3] was 31 µmol/kg; with Rattus norvegicus [2], over 100 µmol/kg.
As for `CC1CCC(=NNc2ccc(Br)cc2Cl)c2ncc(C(=O)O)c(=O)n21` (centres undefined), in the experiment with Rattus norvegicus [1], the ID50 entry is reported as “Insoluble”. Also, the ED50 in the experiment on Rattus norvegicus [2] was over 100 µmol/kg.
For the compound `Cc1cc(C)cc(NN=C2CCC(C)n3c2ncc(C(=O)O)c3=O)c1` (centres undefined), the ID50 entry in the experiment on Rattus norvegicus [1] is on record as “Insoluble”. Besides, in the experiment on Rattus norvegicus [2], the ED50 was over 320 µmol/kg.
`CC1CCC(C)(N=Nc2ccccc2)c2ncc(C(=O)O)c(=O)n21` (centres undefined): the ED50 with Rattus norvegicus [3] is 35 µmol/kg; in the experiment on Rattus norvegicus [2], over 100 µmol/kg.
Regarding `CC1CCC(=NNc2ccccc2C(=O)O)c2ncc(C(=O)O)c(=O)n21` (centres undefined), the results for the ED50 in the experiment with Rattus norvegicus [3] and in the experiment with Rattus norvegicus [2] were 0.48 µmol/kg and over 100 µmol/kg, respectively.
Regarding `CC1CCC(=NNc2cc(Cl)ccc2O)c2ncc(C(=O)O)c(=O)n21` (centres undefined), the ID50 result in the experiment on Rattus norvegicus [1] was “Insoluble”. Also, in the experiment on Rattus norvegicus [2], the ED50 is over 100 µmol/kg.
On the same counts, the results for `Cc1cc(NN=C2CCC(C)n3c2ncc(C(=O)O)c3=O)ccc1Br` (centres undefined) are “Insoluble” and over 100 µmol/kg.
`CC1CCC(=NNc2ccc(Cl)cc2Cl)c2ncc(C(=O)O)c(=O)n21` (centres undefined): the ID50 entry with Rattus norvegicus [1] is recorded as “Insoluble”. Besides, the ED50 in the experiment on Rattus norvegicus [2] was over 100 µmol/kg.
Regarding `CCc1nc2n(c(=O)c1C(=O)O)C(C)CCC2=NNc1ccccc1` (centres undefined), the ED50 is over 100 µmol/kg with Rattus norvegicus [3] and over 320 µmol/kg in the experiment on Rattus norvegicus [2].
On the same counts, the results for `Cc1nc2n(c(=O)c1C(=O)O)C(C)CCC2=NNc1ccccc1` (centres undefined) are over 100 µmol/kg and over 320 µmol/kg.
Regarding `Cc1cccc(NN=C2CCC(C)n3c2ncc(C(=O)O)c3=O)c1C` (centres undefined), the ID50 result in the experiment with Rattus norvegicus [1] was “Insoluble”. The ED50 with Rattus norvegicus [2] was over 100 µmol/kg.
In the same order, the values of `CC1CCC(N=Nc2ccccc2)=C2N(C)C=C(C(=O)O)C(=O)N21` (centres undefined) are “Insoluble” and over 100 µmol/kg.
`CC1CCC(=NNc2cc(Cl)cc(Cl)c2)c2ncc(C(=O)O)c(=O)n21` (centres undefined): the ED50 is 13.3 µmol/kg with Rattus norvegicus [3] and over 100 µmol/kg with Rattus norvegicus [2].
`Cc1nc2n(c(=O)c1C(N)=O)C(C)CCC2=NNc1ccccc1` (centres undefined): the ID50 entry in the experiment with Rattus norvegicus [1] was “Insoluble”. Also, the ED50 in the experiment with Rattus norvegicus [2] is over 100 µmol/kg.
On the same counts, the results for `CCc1nc2n(c(=O)c1C(N)=O)C(C)CCC2=NNc1ccccc1` (centres undefined) are “Insoluble” and over 100 µmol/kg.
On to `CC1CCC(=NNc2nn[nH]n2)c2ncc(C(=O)O)c(=O)n21` (centres undefined), for which the ED50 with Rattus norvegicus [3] and in the experiment with Rattus norvegicus [2] was over 100 µmol/kg throughout.
